In PubChem BioAssay AID248 (DTP/NCI, 2004):
Where “and” joins values, the source holds several entries; their conditions need not be identical. Equal values may be shown once. Inconclusive results and toxic doses are left out.

System: L1210 leukemia ip in BDF1 mice, survival T/C
Assay: NCI In Vivo Anticancer Drug Screen. Data for tumor model L1210 Leukemia (intraperitoneal) in B6D2F1 (BDF1) mice
Conditions: endpoint: mean survival time, higher = longer survival
In short: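 In this screen, tumor-bearing mice given compound are compared to those given vehicle, and their survival values are reported as a treated-to-control quotient.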

[1] = dose: 50.0 mg/kg/injection, schedule: Q01DX009 (ip), vehicle: saline with Tween-80
[2] = dose: 200.0 mg/kg/injection, schedule: Q01DX009 (ip), vehicle: saline with Tween-80
[3] = dose: 100.0 mg/kg/injection, schedule: Q04DX003 (ip), vehicle: saline
[4] = dose: 200.0 mg/kg/injection, schedule: Q04DX003 (ip), vehicle: saline
[5] = dose: 100.0 mg/kg/injection, schedule: Q01DX001 (ip), vehicle: carboxymethylcellulose (CMC)
[6] = dose: 200.0 mg/kg/injection, schedule: Q01DX001 (ip), vehicle: carboxymethylcellulose (CMC)
[7] = dose: 400.0 mg/kg/injection, schedule: Q01DX001 (ip), vehicle: carboxymethylcellulose (CMC)

## Cc1cc(OC(=O)Nc2ccc(Cl)cc2C(F)(F)F)c(C)cc1Cl
[1]
  T/C: 98 % of control
dose: 100.0 mg/kg/injection, schedule: Q01DX009 (ip), vehicle: saline with Tween-80
  T/C: 95 % of control
[2]
  T/C: 109 % of control

## Cc1cc(CN)c(C)cc1CN
dose: 50.0 mg/kg/injection, schedule: Q01DX009 (ip), vehicle: saline
  T/C: 96 % of control
dose: 100.0 mg/kg/injection, schedule: Q01DX009 (ip), vehicle: saline
  T/C: 95 % of control
[3]
  T/C: 103 % of control
dose: 200.0 mg/kg/injection, schedule: Q01DX009 (ip), vehicle: saline
  T/C: 86 % of control
[4]
  T/C: 97 % of control

## C[n+]1c2cc(N)ccc2cc2ccc(N)cc21
dose: 3.0 mg/kg/injection, schedule: Q04DX003 (ip), vehicle: saline
  T/C: 108 % of control
dose: 3.5 mg/kg/injection, schedule: Q01DX009 (ip), vehicle: saline
  T/C: 111 % of control
dose: 5.3 mg/kg/injection, schedule: Q01DX009 (ip), vehicle: saline
  T/C: 118 % of control
dose: 6.0 mg/kg/injection, schedule: Q04DX003 (ip), vehicle: saline
  T/C: 105 % of control
dose: 6.25 mg/kg/injection, schedule: Q01DX009 (ip), vehicle: saline
  T/C: 122 % of control
dose: 12.0 mg/kg/injection, schedule: Q04DX003 (ip), vehicle: saline
  T/C: 113 % of control
dose: 12.5 mg/kg/injection, schedule: Q04DX003 (ip), vehicle: saline
  T/C: 98 % of control

## CCCCN1CCN2C(=O)N(CC)CCC2C1 (stereo not drawn)
dose: 25.0 mg/kg/injection, schedule: Q04DX003 (ip), vehicle: saline
  T/C: 91 % of control
dose: 50.0 mg/kg/injection, schedule: Q04DX003 (ip), vehicle: saline
  T/C: 98 % of control
dose: 100.0 mg/kg/injection, schedule: Q01DX001 (ip), vehicle: saline
  T/C: 102 % of control
[3]
  T/C: 116 % of control

## Nc1ccc(C(=O)CC(N)C(=O)O)cc1O (stereo not drawn)
[5]
  T/C: 112 % of control
[6]
  T/C: 91 % of control
[7]
  T/C: 100 % of control

## CN(C(N)=O)C1CCCC1
[3]
  T/C: 96 % of control
[4]
  T/C: 91 % of control
dose: 400.0 mg/kg/injection, schedule: Q04DX003 (ip), vehicle: saline
  T/C: 96 % of control

## CCN(CC)c1ccc(N=Cc2cc(=O)n(C)c3ccccc23)cc1
[5]
  T/C: 101 % of control
[6]
  T/C: 90 % of control
[7]
  T/C: 88 % of control

## CC(=O)Nc1c(F)c(F)c(N=Nc2ccccc2)c(F)c1F
[5]
  T/C: 100 % of control
[6]
  T/C: 102 % of control
[7]
  T/C: 100 % of control

## C=CCCCCCCCC/C=C1\CCOC1=O
dose: 75.0 mg/kg/injection, schedule: Q01DX009 (ip), vehicle: saline with Tween-80
  T/C: 105 % of control
dose: 100.0 mg/kg/injection, schedule: Q04DX003 (ip), vehicle: saline with Tween-80
  T/C: 104 % of control
dose: 150.0 mg/kg/injection, schedule: Q01DX009 (ip), vehicle: saline with Tween-80
  T/C: 93 % of control
dose: 200.0 mg/kg/injection, schedule: Q04DX003 (ip), vehicle: saline with Tween-80
  T/C: 89 % of control
dose: 300.0 mg/kg/injection, schedule: Q01DX009 (ip), vehicle: saline with Tween-80
  T/C: 99 % of control
dose: 400.0 mg/kg/injection, schedule: Q04DX003 (ip), vehicle: saline with Tween-80
  T/C: 102 % of control

## C[C@@H]1CN(C(=O)CCOS(C)(=O)=O)[C@@H](C)CN1C(=O)CCOS(C)(=O)=O
dose: 2.5 mg/kg/injection, schedule: Q01DX Z (ip), vehicle: carboxymethylcellulose (CMC)
  T/C: 112 % of control
dose: 3.7 mg/kg/injection, schedule: Q01DX Z (ip), vehicle: carboxymethylcellulose (CMC)
  T/C: 102 % of control
dose: 5.6 mg/kg/injection, schedule: Q01DX Z (ip), vehicle: carboxymethylcellulose (CMC)
  T/C: 115 % of control
dose: 8.4 mg/kg/injection, schedule: Q01DX Z (ip), vehicle: carboxymethylcellulose (CMC)
  T/C: 103 % of control
dose: 29.5 mg/kg/injection, schedule: Q01DX Z (ip), vehicle: carboxymethylcellulose (CMC)
  T/C: 116 % of control
dose: 60.0 mg/kg/injection, schedule: Q01DX Z (ip), vehicle: carboxymethylcellulose (CMC)
  T/C: 166 % of control
dose: 198.0 mg/kg/injection, schedule: Q01DX Z (ip), vehicle: carboxymethylcellulose (CMC)
  T/C: 117 % of control
dose: 200.0 mg/kg/injection, schedule: Q01DX Z (ip), vehicle: carboxymethylcellulose (CMC)
  T/C: 119 % of control
dose: 201.0 mg/kg/injection, schedule: Q01DX Z (ip), vehicle: carboxymethylcellulose (CMC)
  T/C: 91 % of control
dose: 300.0 mg/kg/injection, schedule: Q01DX Z (ip), vehicle: carboxymethylcellulose (CMC)
  T/C: 121 % of control and 90 % of control
dose: 302.0 mg/kg/injection, schedule: Q01DX Z (ip), vehicle: carboxymethylcellulose (CMC)
  T/C: 95 % of control

## CCOC(=O)c1cc(Cl)cc(Cl)c1N=NN(C)C
[1]
  T/C: 102 % of control
[2]
  T/C: 102 % of control

## Cn1nc(N)c2cc(C#N)c(N)nc21
dose: 100.0 mg/kg/injection, schedule: Q01DX009 (ip), vehicle: Klucel (hydroxypropylcellulose) (HPC)
  T/C: 90 % of control
dose: 200.0 mg/kg/injection, schedule: Q01DX009 (ip), vehicle: Klucel (hydroxypropylcellulose) (HPC)
  T/C: 90 % of control
dose: 400.0 mg/kg/injection, schedule: Q01DX009 (ip), vehicle: Klucel (hydroxypropylcellulose) (HPC)
  T/C: 95 % of control
